Read-outs that look alike come from different tables or passages of the source.
How the values were obtained:
[1] = system: YAP/TAZ; assay: Screening: YAP/TAZ activity reporter (8xGTIIC plasmid) assay in NUGC3 cells (luminescence % of DMSO); assay type: cell-based, human
Procedure: (§1) Human gastric cancer cell line NUGC3 was cultured in a DMEM medium (high glucose with L-glutamine and phenol red, produced by FUJIFILM Wako Pure Chemical Corporation) containing 10% fetal bovine serum (produced by Thermo Fisher Scientific Inc.) and penicillin-streptomycin (produced by FUJIFILM Wako Pure Chemical Corporation) (this medium is simply referred to below as “DMEM+10% FBS+1×P/S”). Then, the NUGC3 cells were seeded in a 60-mm culture dish (produced by BioLite) so that the cells were 80% confluent after 24 hours. Subsequently, 5 μg of a reporter plasmid and 15 μL of a lipofection reagent (transIT-LT1, produced by Mirus Bio LLC) were mixed in 500 μL of Opti-MEM medium (produced by Thermo Fisher Scientific, Inc.) to form a complex, which was added to the medium in which the NUGC3 cells were cultured in the 60-mm culture dish. For use as the reporter plasmid, 5 μg of a polyglutamine luciferase reporter was introduced (in the polyglutamine luciferase reporter, a Renilla luciferase expressed in the IRES was located as an internal standard downstream of the sequence of a firefly luciferase sequence to which polyglutamine was added). Alternatively, a YAP/TAZ activity reporter was used by simultaneously introducing 3 μg of 8×GTIIC plasmid and 2 μg of a Renilla luciferase reporter as an internal standard. After another 24 hours, the cells were exfoliated with a 0.05 w/v % trypsin-0.53 mmol/l EDTA-4Na solution (produced by FUJIFILM Wako Pure Chemical Corporation), and then seeded in a 96-well plate (produced by BioLite) so that the cells were 80% confluent after 24 hours. Twenty-four hours after seeding in the 96-well plate, the medium in each well was replaced with 100 μL of a medium (DMEM+10% FBS+an antibiotic) containing 10 μM or 5 μM of a compound for evaluation. After another 24 hours, the medium containing the compound was removed, and the 96-well plate was transferred on ice. Each well was washed with 100 μL of phosphate buffer (PBS, produced by FUJIFILM Wako Pure Chemical Corporation). Thereafter, 20 μL of Passive Lysis Buffer (1×) contained in a Dual-Luciferase Reporter Assay System (produced by Promega Corporation) was added. The plate was then gently shaken for 15 minutes at room temperature to lyse the cells. After confirming that the cells were lysed, 10 μL of the lysate was transferred from each well to each corresponding well of a white 96-well plate (produced by Greiner Bio-one). To each well of the white 96-well plate was added 100 μL of a mixture of a Luciferase Assay Buffer II and Luciferase Assay Substrate contained in the Dual-Luciferase Reporter Assay System (produced by Promega Corporation), whereby the luminescence of the firefly luciferase was induced, and the luminescence intensity was detected with a microluminometer (produced by Berthold Japan K.K.). Subsequently, 100 μL of a mixture of Stop & Glo Buffer and Stop & Glo Substrate contained in the Dual-Luciferase Reporter Assay System (produced by Promega Corporation) was added, whereby the luminescence of firefly luciferase was quenched while the luminescence of Renilla luciferase was induced, and the luminescence intensity was detected with a microluminometer (produced by Berthold Japan K.K.) in a manner similar to the above. The ratio of the luminescence intensity of the firefly luciferase and the luminescence intensity of the Renilla luciferase was calculated, and the luminescence intensity (%) of the wells containing each compound was calculated with the luminescence intensity of the well containing DMSO (dimethyl sulfoxide, used as a solvent for the compound liquids) taken as 100%. […] Unless otherwise specified, the measured values in the table represent the results obtained by evaluation with the addition of 10 μM of each compound for evaluation.

[2] = system: polyglutamine luciferase reporter; assay: Screening: polyglutamine luciferase reporter assay in NUGC3 cells (luminescence % of DMSO); assay type: cell-based, human
Procedure: as §1

[3] = YAP/TAZ activity reporter (8×GTIIC), NUGC3 cells, luminescence relative to DMSO, concentration not given
[4] = polyglutamine luciferase reporter, NUGC3 cells, luminescence relative to DMSO, concentration not given
[5] = NUGC3 cells, luminescence relative to DMSO, concentration not given

| SMILES | 8×GTIIC [1, 3] [%] | Polyglutamine [2, 4] [%] | further results |
| --- | --- | --- | --- |
| O=S(=O)(CC1CCCC1)c1ccc(-c2ccccc2)cc1 [PVZF2028] | 40.24 | 42.32 | – |
| CCCc1ccc(S(=O)(=O)CC2CCC(C3CC3)CC2)cc1 (stereo not shown) [SA039] | 56.65 | 97.44 | – |
| CCS(=O)(=O)C1CCC(CS(=O)(=O)c2cc(C(C)C)cc(C)c2C)CC1 (stereo not shown) [SA077] | 66.59 | 65.09 | – |
| CCc1cccc(C2CC(c3ccc(C)cc3)=NC2S(=O)(=O)c2ccc(C)cc2)c1CC (stereo not shown) [PVZF0057] | – | – | 8×GTIIC [1, 5]: 61.81%; Polyglutamine [2, 5]: 50.71% |
| CC(C)(C)Cc1ccccc1S(=O)(=O)CC1CCC(C2CC2)CC1 (stereo not shown) [SA089] | 50.1 | 56.61 | – |
| CC(C)(C)c1cc(C(C)(C)C)cc(S(=O)(=O)CC2CCC(C3CC3)CC2)c1 (stereo not shown) [SA066] | 64.4 | 66.16 | – |
| CC(=O)c1cccc(C2CC(c3ccc(C)cc3)=NC2S(=O)(=O)c2ccc(C)cc2)c1 (stereo not shown) [PVZF0095] | – | – | 8×GTIIC [1, 5]: 66.76%; Polyglutamine [2, 5]: 47.01% |
| Cc1ccccc1C1=CC(C2=CC3CCCCC3C=C2)=CC1 (stereo not shown) [PVZF0101] | – | – | activity at 5 µM ([1]; Homo sapiens, NUGC-3, NUGC3 cells, luminescence relative to DMSO, 5 μM, read-out: 8×GTIIC): 16.1%; activity at 10 µM ([1]; Homo sapiens, NUGC-3, NUGC3 cells, luminescence relative to DMSO, 10 μM, read-out: 8×GTIIC): 12.5%; activity at 5 µM ([2]; Homo sapiens, NUGC-3, NUGC3 cells, luminescence relative to DMSO, 5 μM): 13%; activity at 10 µM ([2]; Homo sapiens, NUGC-3, NUGC3 cells, luminescence relative to DMSO, 10 μM): 10% |
| CC(C)(C)c1cc(C(C)(C)C)cc(S(=O)(=O)CC2CCC(S(C)(=O)=O)CC2)c1 (stereo not shown) [SA070] | 109.7 | 59.04 | – |
| Cc1cc(C)c(S(=O)(=O)CC2CC(C)(C)CC(C)(C)C2)cc1C [SA008] | 57.06 | 51.03 | – |
| Cc1ccc(C)c(S(=O)(=O)CC2CCC(C3CC3)CC2)c1 (single isomer, unassigned) [SA005] | 90.78 | 76.08 | – |
| CCc1ccc(S(=O)(=O)C2CCC(CS(=O)(=O)c3cc(C)cc(C)c3)CC2)cc1 (stereo not shown) [SA021] | 70.64 | 44.6 | – |
| CCCc1ccc(S(=O)(=O)CC2CCC(C3CC3)CC2)cc1OCC (stereo not shown) [SA029] | 65.65 | 58.64 | – |
| O=S(=O)(CC1CCC(C2CC2)CC1)c1ccc2c(c1)CCCC2 (stereo not shown) [SA038] | 94.4 | 69.77 | – |
| Cc1ccc(S(=O)(=O)CC2CCC(S(C)(=O)=O)CC2)cc1 (stereo not shown) [SA060] | 90.52 | 92.41 | – |
| Cc1ccc(C2=NC(S(=O)(=O)c3ccccc3)C(c3ccc(C)cc3)C2)cc1 (stereo not shown) [PVZF0073] | – | – | 8×GTIIC [1, 5]: 86.43%; Polyglutamine [2, 5]: 60.62% |
| CCCCCCS(=O)(=O)c1c(C(C)C)cc(C(C)C)cc1C(C)C [PVZF2003] | 75.26 | 41.74 | – |
| O=S(=O)(CC1CCC(C2CC2)CC1)c1ccc2c(c1)CCC2 (stereo not shown) [SA091] | 101.3 | 88.36 | – |
| CCc1ccc(C2=CC(C(C)=O)C(c3ccc(CC)c(C)c3)C2)cc1 (stereo not shown) [PZ173] | 160.5 | 67.61 | – |
| Cc1ccccc1S(=O)(=O)CC1CCC(S(C)(=O)=O)CC1 (stereo not shown) [SA059] | 88.99 | 100.9 | – |
| CCc1cccc(C2CC(c3ccc(C)cc3)=NC2S(C)(=O)=O)c1CC (stereo not shown) [PVZF0079] | – | – | 8×GTIIC [1, 5]: 79.74%; Polyglutamine [2, 5]: 53.25% |
| CCc1cccc(C2CC(c3ccccc3)=NC2S(=O)(=O)c2ccccc2)c1CC (stereo not shown) [PVZF0046] | – | – | 8×GTIIC [1, 5]: 54.68%; Polyglutamine [2, 5]: 47.04% |
| Cc1ccc(C2=NC(S(C)(=O)=O)C(c3ccc(C)cc3)C2)cc1 (stereo not shown) [PVZF0082] | – | – | 8×GTIIC [1, 5]: 172.9%; Polyglutamine [2, 5]: 87.78% |
| Cc1ccc(C)c(S(=O)(=O)CC2CCC(C3CC3)CC2)c1 (stereo not shown) [SA052] | 54.65 | 47.69 | – |
| O=S(=O)(CC1CCC(S(=O)(=O)c2cccs2)CC1)c1ccc2c(c1)CCCC2 (stereo not shown) [SA047] | 56.12 | 47.4 | – |

| SMILES | 8×GTIIC [1, 3] [%] | Polyglutamine [2, 4] [%] | further results |
| --- | --- | --- | --- |
| CCc1ccc(CC)c(S(=O)(=O)CC2CCC(S(C)(=O)=O)CC2)c1 (stereo not shown) [SA095] | 67.3 | 44.97 | – |
| O=S(=O)(CC1CCCCC1)c1ccccc1 [PVZF2048] | 69.86 | 73.33 | – |
| CCS(=O)(=O)C1CCC(CS(=O)(=O)c2ccc(C)cc2)CC1 (stereo not shown) [SA044] | 63.33 | 87.25 | – |
| CC(C)(C)c1ccc(S(=O)(=O)CCc2ccccc2)cc1 [PVZF2023] | 66.96 | 58.32 | – |
| CS(=O)(=O)C1CCC(CS(=O)(=O)c2ccc3c(c2)CCCC3)CC1 (stereo not shown) [SA065] | 39.43 | 47.58 | – |
| O=S(=O)(CC1CCCC1)c1ccc(C2CCCCC2)cc1 [PVZF2064] | 75.47 | 64 | – |
| CC(=O)c1cccc(C2CC(c3ccc(C)cc3)=NC2S(=O)(=O)c2ccccc2)c1 (stereo not shown) [PVZF0093] | – | – | 8×GTIIC [1, 5]: 59.77%; Polyglutamine [2, 5]: 45.45% |
| Cc1ccc(C2=NC(S(=O)(=O)c3ccccc3)C(c3ccc(C)cc3)C2)cc1 (stereo not shown) [PVZF0086] | – | – | 8×GTIIC [1, 5]: 57.06%; Polyglutamine [2, 5]: 58.32% |
| CCc1cccc(C2CC(c3cccc(C)c3)=NC2S(=O)(=O)c2ccccc2C)c1CC (stereo not shown) [PVZF0058] | – | – | 8×GTIIC [1, 5]: 66.66%; Polyglutamine [2, 5]: 54.21% |
| CCc1cccc(C2CC(c3ccccc3)=NC2S(=O)(=O)c2ccc(C)cc2)c1CC (stereo not shown) [PVZF0068] | – | – | 8×GTIIC [1, 5]: 51.65%; Polyglutamine [2, 5]: 39.33% |
| Cc1cc(C(C)(C)C)cc(C)c1S(=O)(=O)CC1CCC(C2CC2)CC1 (stereo not shown) [SA053] | 55.02 | 35.39 | – |
| O=S(=O)(CCC1CCCCC1)c1ccccc1 [PVZF2051] | 35.1 | 38.06 | – |
| Cc1cc(C)c(S(=O)(=O)CC2CC(C)(C)CC(C)(C)C2)cc1C [SA002] | 47.03 | 49.58 | – |
| CCc1cc(OC)cc(C2=NC(S(=O)(=O)c3ccccc3)C(c3cccc(CC)c3CC)C2)c1 (stereo not shown) [PVZF0053] | – | – | 8×GTIIC [1, 5]: 58.96%; Polyglutamine [2, 5]: 68.68% |
| O=S(=O)(CC1CCC(S(=O)(=O)c2ccccc2)CC1)c1ccccc1 (stereo not shown) [SA049] | 43.7 | 39.58 | – |
| Cc1cccc(S(=O)(=O)CC2CCC(C3CC3)CC2)c1C (stereo not shown) [SA030] | 73.56 | 86.26 | – |
| Cc1cccc(S(=O)(=O)CC2CCC(C3CC3)CC2)c1 (stereo not shown) [SA041] | 87.17 | 88.82 | – |
| CCCCCCS(=O)(=O)c1ccc(-c2ccccc2)cc1 [PVZF2029] | 49.28 | 49.5 | – |
| CCC(C)(C)c1ccc(S(=O)(=O)CC2CCCC2)cc1 [PVZF2037] | 43.28 | 51.06 | – |
| Cc1ccc(C)c(S(=O)(=O)C2CCC(CS(=O)(=O)c3ccccc3)CC2)c1 (single isomer, unassigned) [SA015] | 69.21 | 60.36 | – |
| CCOc1cc(S(=O)(=O)C2CCC(NS(=O)(=O)c3ccccc3)CC2)ccc1COC (stereo not shown) [SA018] | 74.98 | 78.85 | – |
| CC(C)c1cc(C(C)C)c(S(=O)(=O)CC(c2ccccc2)c2ccc(-c3ccccc3)cc2)c(C(C)C)c1 (stereo not shown) [PVZF2083] | 108.4 | 69 | – |
| CC(C)c1cc(C(C)C)c(S(=O)(=O)NCC2CCCNC2)c(C(C)C)c1 (stereo not shown) [PVZF2008] | 70.12 | 64.94 | – |
| O=S(=O)(NCCC1=CCCCC1)c1ccc(-c2ccccc2)cc1 [PVZF2035, N-(2-(cyclohexy-1-en-1-yl)ethyl)-[1,1′-biphenyl]-4-sulfonamide] | – | – | 8×GTIIC [1]: 71.12%; Polyglutamine [2]: 58.85% |
